Results published in patent US6103751A, “Carotene analogs of porphyrins, chlorins and bacteriochlorins as therapeutic and diagnostic agents” (Health Research, Inc., priority 1998, dated 2000).

Tests used:
[1] = Partition Coefficient (log P); type: physicochemical
RIF tumor = test: In vivo photosensitizing activity (tumor response after laser illumination); design: species or system C3H mice
Description: Preliminary In Vivo Activity:
RIF rumors were implanted subcutaneously into the axilla of 5-7 week old female C3H mice. When tumors grew to about 5 mm diameter, mice were injected with photosensitizers at various doses. The mice (6 mice/group) were restrained in aluminum holders and each tumor illuminated with 135 J/cm^2 light from a laser tuned at the longest wavelength absorption maximum of the photosensitizers. The percentage of short-term control was recorded daily.
*Six mice/group (RIF tumor). 1.0 μmol/kg, 705 nm, 135 J/cm^2 (24 h
*Six mice/group (RIF tumor). 135 J/cm^2

[2] = Fluorescence spectroscopy in dichloromethane; type: physicochemical
Description: Fluorescence Spectroscopy:
The fluorescence spectra of HPPH 2, purpurin-imide 4 and their corresponding carotene conjugates 3 and 6 were measured in dichloromethane. In the case of HPPH and its carotenoid analog, excitation at 660 nm gave strong emission at 670 nm. Similarly, purpurin imide and its carotenoid analog on excitation at 705 nm produced emission at 715 nm. Due to their strong fluorescence, and higher uptake in tumors, these compounds show great potential for use as diagnostic agents for malignant and non-malignant tumors.

[3] = Singlet oxygen production in oxygen saturated toluene, singlet oxygen phosphorescence at 1270 nm; type: physicochemical; details: for singlet oxygen production: phosphorescence at 1270 nm
Description: The carboxylic acid functionality was first activated by preparing carbodiimide analog (in situ) before condensing with amino carotene. The structure of the conjugate was confirmed by NMR and mass spectrometry. The singlet oxygen production by HPPH and its carotene conjugate was measured in oxygen saturated toluene solutions by monitoring the singlet oxygen phosphorescence at 1270 nm. […] Thus, a complete photoprotection was achieved.

[4] = test system: radiation induced fibrosarcoma (RIF) tumor; test: Tumor uptake by in vivo reflection spectroscopy; design: species or system C3H mice; details: 5 micro mole/Kg; tumor vs skin fold; 3 h and 24 h post injection
Description: Determination of Tumor Uptake by In Vivo Reflection Spectroscopy:
The tumor uptake of the parent photosensitizer 2 (HPPH), FIG. 1, and purpurin with a fused imide ring 4, FIG. 2, were compared to the corresponding carotene conjugate 3 and 6 by in vivo reflection spectroscopy.
For these experiments, C3H mice with an axillary radiation induced fibrosarcoma (RIF) tumor were injected with the drug in an amount of 5 micro mole/Kg of body weight and the in vivo absorption specta were taken at various time intervals. FIGS. 3 and 4 respectively show the uptake of HPPH 2 and purpurin-imide 4 at 24 h post injection. FIGS. 5 and 6 show the uptake of the HPPH-carotene conjugate at 3 h and 24 h post injection.

CCCOC(C)c1c(C)c2cc3nc(c4c5[nH]c(cc6nc(cc1[nH]2)C(C)=C6CC)c(C)c5C(=O)N(CCC)C4=O)[C@@H](CCC(=O)OC)[C@@H]3C (stereo partly shown) [Propyl Propyl]
logP [1]: 7.22

CCCCCCCOC(C)c1c(C)c2cc3nc(c4c5[nH]c(cc6nc(cc1[nH]2)C(C)=C6CC)c(C)c5C(=O)N(CCCCCC)C4=O)[C@@H](CCC(=O)Nc1ccc(/C=C/C(C)=C/C=C/C(C)=C/C=C/C=C(C)/C=C/C=C(C)/C=C/C2=C(C)CCCC2(C)C)cc1)[C@@H]3C (stereo partly shown) [Purpurin-imide-carotene (6)]
TUMOR RESPONSE (all days) (RIF tumor; 1.0 μmol/kg, 705 nm, 24 between inj. & treatment, 135 J/cm^2, Table 2): NO RESPONSE
fluorescence emission wavelength ([2]; excitation at 705 nm): 715 nm

CCCCCCCOC(C)c1c(C)c2cc3nc(c4c5[nH]c(cc6nc(cc1[nH]2)C(C)=C6CC)c(C)c5C(=O)N(CCCCCC)C4=O)[C@@H](CCC(=O)OC)[C@@H]3C (stereo partly shown) [Purpurin-imide (4), heptyl ether analog of N-hexyl purpurin imide]
% TUMOR RESPONSE day 7 (RIF tumor; 1.0 μmol/kg, 705 nm, 24 between inj. & treatment, 135 J/cm^2, day 7, Table 2): 100%
% TUMOR RESPONSE day 21 (RIF tumor; 1.0 μmol/kg, 705 nm, 24 between inj. & treatment, 135 J/cm^2, day 21, Table 2): 100%
% TUMOR RESPONSE day 30 (RIF tumor; 1.0 μmol/kg, 705 nm, 24 between inj. & treatment, 135 J/cm^2, day 30, Table 2): 100%
% TUMOR RESPONSE day 90 (RIF tumor; 1.0 μmol/kg, 705 nm, 24 between inj. & treatment, 135 J/cm^2, day 90, Table 2): 83%
Tumor Response days 1-2 (RIF tumor; 1.0 μmol/kg, 705 nm, 135 J/cm^2, 24 h post injection, Table 1): 100%
mice tumor free on day 90 (RIF tumor; 1.0 μmol/kg, 705 nm, 135 J/cm^2, day 90): 5/6
in vivo activity among the compounds tested (RIF tumor; dose of 1.0 μmol/kg): most effective
fluorescence emission wavelength ([2]; excitation at 705 nm): 715 nm

CCCN1C(=O)c2c3nc(cc4[nH]c(cc5nc(cc6[nH]c2c(c6C)C1=O)C(CC)=C5C)c(C(C)OC)c4C)[C@@H](C)[C@@H]3CCC(=O)OC (stereo partly shown) [Methyl Propyl]
logP [1]: 6.22

CCCCCCOC(C)c1c(C)c2cc3nc(c4c5[nH]c(cc6nc(cc1[nH]2)C(C)=C6CC)c(C)c5C(=O)N(CCC)C4=O)[C@@H](CCC(=O)OC)[C@@H]3C (stereo partly shown) [Hexyl Propyl]
Tumor Response day 7 (RIF tumor; 0.5 μmol, 705 nm, 135 J/cm^2, 24 h post injection, day 7, Table 1): 66%
Tumor Response day 14 (RIF tumor; 0.5 μmol, 705 nm, 135 J/cm^2, 24 h post injection, day 14, Table 1): 33%
Tumor Response day 21 (RIF tumor; 0.5 μmol, 705 nm, 135 J/cm^2, 24 h post injection, day 21, Table 1): 17%
Tumor Response day 30 (RIF tumor; 0.5 μmol, 705 nm, 135 J/cm^2, 24 h post injection, day 30, Table 1): 17%
Tumor Response day 90 (RIF tumor; 0.5 μmol, 705 nm, 135 J/cm^2, 24 h post injection, day 90, Table 1): 17%
Tumor Response days 1-2 (RIF tumor; 0.5 μmol, 705 nm, 135 J/cm^2, 24 h post injection, Table 1): 100%
logP [1]: 8.72

CCCCCCN1C(=O)c2c3nc(cc4[nH]c(cc5nc(cc6[nH]c2c(c6C)C1=O)C(CC)=C5C)c(C(C)OCCC)c4C)[C@@H](C)[C@@H]3CCC(=O)OC (stereo partly shown) [Propyl Hexyl]
logP [1]: 8.72

CCCCCCN1C(=O)c2c3nc(cc4[nH]c(cc5nc(cc6[nH]c2c(c6C)C1=O)C(CC)=C5C)c(C(C)OC)c4C)[C@@H](C)[C@@H]3CCC(=O)OC (stereo partly shown) [Methyl Hexyl]
logP [1]: 7.72

CCCCCCOC(C)c1c(C)c2cc3nc(c4c5[nH]c(cc6nc(cc1[nH]2)C(C)=C6CC)c(C)c5C(=O)C4)[C@@H](CCC(=O)O)[C@@H]3C (stereo partly shown) [HPPH (2), Hexyl ether analog of pyropheophorbide-a, reference compound]
fluorescence yield (Φf) [3]: 0.48
singlet oxygen yield (ΦΔ) ([3]; oxygen saturated toluene): 0.45
singlet oxygen production ([3]; oxygen saturated toluene): Ample production
% TUMOR RESPONSE day 1-2 (RIF tumor; 0.47 μmol/kg, 665 nm, 24 between inj. & treatment, 135 J/cm^2, day 1-2, Table 2): 100%
% TUMOR RESPONSE day 7 (RIF tumor; 0.47 μmol/kg, 665 nm, 24 between inj. & treatment, 135 J/cm^2, day 7, Table 2): 100%
% TUMOR RESPONSE day 30 (RIF tumor; 0.47 μmol/kg, 665 nm, 24 between inj. & treatment, 135 J/cm^2, day 30, Table 2): 50%
% TUMOR RESPONSE day 90 (RIF tumor; 0.47 μmol/kg, 665 nm, 24 between inj. & treatment, 135 J/cm^2, day 90, Table 2): 50%
% TUMOR RESPONSE day 21 (RIF tumor; 0.47 umol/kg, 504 h): 80%
fluorescence emission wavelength ([2]; excitation at 660 nm): 670 nm

CCCCCCOC(C)c1c(C)c2cc3nc(c4c5[nH]c(cc6nc(cc1[nH]2)C(C)=C6CC)c(C)c5C(=O)C4)[C@@H](CCC(=O)Nc1ccc(/C=C/C(C)=C/C=C/C(C)=C/C=C/C=C(C)/C=C/C=C(C)/C=C/C2=C(C)CCCC2(C)C)cc1)[C@@H]3C (stereo partly shown) [HPPH-carotene (3)]
singlet oxygen production ([3]; oxygen saturated toluene): did not produce singlet oxygen
tumor uptake compared to parent compound [4]: significant uptake of the drug in the tumor vs the skin fold
TUMOR RESPONSE (all days) (RIF tumor; 0.47 μmol/kg, 665 nm, 24 between inj. & treatment, 135 J/cm^2, Table 2): NO RESPONSE
fluorescence emission wavelength ([2]; excitation at 660 nm): 670 nm
